These results are taken from patent US9180160B2, “Complement inhibitors for treatment of injury from intracerebral hemorrhage” (The Trustees of the University of Pennsylvania, priority 2008, dated 2015).

Entries after “also recorded” stand apart in the source; their conditions may differ.

Common to all, as to format: in vivo
The subject of test [1] is C57BL/6J mice subjected to ICH. Kind of test: Forelimb placing test after ICH. Conditions: 1 mg/kg i.p. 45 minutes prior to ICH, then twice daily; 72 hours after ICH. On the procedure:
(§1) Animal Preparation and Intracerebral Infusion. Adult male C57BL/6J mice weighing 23-30 g were used. Mice were randomized to receive intraperitoneal injection of either C3aRA (1 mg/kg) (SB290157, Calbiochem, Darmstadt, Germany) diluted in PBS and DMSO (1.16% v/v), or an equal volume of vehicle (PBS and DMSO, 1.16% DMSO v/v) either 45 minutes prior to ICH induction or 6 and 12 hours after induction of ICH, followed in both cohorts by twice daily doses for 72 hours. […] Sham animals were given PBS and DMSO (1.16% v/v) in the same manner.
Mice were anesthetized with a single intraperitoneal dose of ketamine (90 mg/kg) and xylazine (5 mg/kg). […]
(§2) Neurofunction and behavioral testing. Sensorimotor function was evaluated by means of the 28-point neurological function score, corner test and forelimb placing tests, which were performed pre-operatively and at 6, 24, 48 and 72 hour post-injury. Navigational memory was evaluated with the means of a Morris water-maze (MWM) test pre-operatively and at 72 hours post ICH. […]
Forelimb placing test. […] Each animal was tested 10 times for each forelimb, and the percentage of trials in which the mouse placed the appropriate forelimb on the edge of the table after vibrissae stimulation was determined.

For test [2], the system named is C57BL/6J mice subjected to ICH. Kind of test: 28-point neurological function score after ICH (autologous blood infusion). The protocol: as §1
Mice were anesthetized with a single intraperitoneal dose of ketamine (90 mg/kg) and xylazine (5 mg/kg). Next, the mice were placed in a stereotactic frame (ASI Instruments, Inc., Warren, Mich., USA) and subjected to ICH using autologous blood infusion as previously described (Rynkowski M A et al, 2008, Nat Protoc 3: 122-128), Briefly, a 1-mm burr hole was drilled 2.3 mm lateral to the midline and 0.2 mm anterior to the bregma. Thirty μL of autologous whole blood were drawn from the tail artery into a capillary tube. A 30-gauge needle was then advanced stereotactically through the burr hole into the right striatum (coordinates: 0.2 mm anterior, 2.3 mm lateral to the bregma, 3.5 mm ventral). Using a microinfusion pump (KDS220, KD Scientific Inc., Holliston, Mass., USA), 5 μL was delivered at a rate of 1.5 μL per minute. After a 7-minute period, an additional 25 μL was delivered at a constant rate of 1.5 μL per minute. […]
as §2
Neurological function. Acute neurological deficits were assessed using a 28-point scoring system including body symmetry, gait, climbing, circling behavior, front limb symmetry, compulsory circling and whisker response. […]

In test [3] the test system is C57BL/6J mice subjected to ICH. Kind of test: Flow cytometric analysis of granulocyte infiltration and microglial activation after ICH. Conditions: then twice daily, mean±SEM. On the procedure:
as §1
Mice were anesthetized with a single intraperitoneal dose of ketamine (90 mg/kg) and xylazine (5 mg/kg). Next, the mice were placed in a stereotactic frame (ASI Instruments, Inc., Warren, Mich., USA) and subjected to ICH using autologous blood infusion as previously described (Rynkowski M A et al, 2008, Nat Protoc 3: 122-128), Briefly, a 1-mm burr hole was drilled 2.3 mm lateral to the midline and 0.2 mm anterior to the bregma. Thirty μL of autologous whole blood were drawn from the tail artery into a capillary tube. A 30-gauge needle was then advanced stereotactically through the burr hole into the right striatum (coordinates: 0.2 mm anterior, 2.3 mm lateral to the bregma, 3.5 mm ventral). Using a microinfusion pump (KDS220, KD Scientific Inc., Holliston, Mass., USA), 5 μL was delivered at a rate of 1.5 μL per minute. After a 7-minute period, an additional 25 μL was delivered at a constant rate of 1.5 μL per minute. After a period of 10 minutes, the needle was slowly removed, the burr hole was occluded with bone wax and the skin incision was closed with Nexaband® (Abbott Laboratories, North Chicago, Ill.). Sham animals received only needle insertion. […]
Preparation of brains. Both cerebral hemispheres were analyzed for inflammatory cells using flow cytometry. […]
Flow cytometric analysis. […] Flow cytometric analysis was carried out using a FACSCalibur (BD Biosciences, Franklin Lakes, N.J., USA), and the data were analyzed using FlowJo software (Tree Star, Ashland, Oreg., USA). […]
(A flow cytometer gives signals particle by particle.)

[4] abbreviates: 1 mg/kg i.p. first at 6 h and 12 h after ICH, then twice daily for 72 hours, versus vehicle.
Where [5] appears, read: 1 mg/kg i.p. 45 minutes prior to ICH, 72 hours after ICH.

Take `NC(N)=NCCC[C@H](NC(=O)COCC(c1ccccc1)c1ccccc1)C(=O)O` [C3aRA]: the “forelimb placing capacity in the impaired limb” value in test [1] is on record as “no significant deficits compared with sham animals”. The 28-point neurological score entry in test [2] (1 mg/kg i.p. 45 minutes prior to ICH, then twice daily, 72 hours after ICH) is on record as “no significant deficits compared with sham animals”. Besides, the 28-point neurological score result in test [2] (setting [4]) was “significant improvement at 24, 48, and 72 hours; also recorded: significant improvement at 24, 48 and 72 hours”. Moreover, in test [3] (setting [5]), the “activated microglia, hemorrhagic/non-hemorrhagic hemisphere ratio” value is on record as 3.67±0.45 and the “granulocytes, hemorrhagic/non-hemorrhagic hemisphere ratio” value is 3.21±0.52.
Take “Acetyl-Phe-[Orn-Pro-D-cyclohexylalanine-Trp-Arg] [C5aRA]”: in test [2] (setting [4]), the 28-point neurological score result is “significant improvement at 24, 48 and 72 hours”. Further, the “granulocyte infiltration, hemorrhagic/non-hemorrhagic ratio” value in test [3] (1 mg/kg i.p. first at 6 h and 12 h after ICH, 3 days after ICH) is 1.7793±0.36.
